Data as given in patent US9732051B2, “Isothiazoline compounds for combating invertebrate pests” (BASF SE, priority 2011, dated 2017).

Key:
Format in all cases: in vivo
[1] = tested on: Megoura viciae; experiment: Vetch aphid leaf disk test in 24-well plates; settings: foliar, 120 h, 5 days, in comparison with untreated controls
Experimental: B.10 Vetch Aphid (Megoura viciae)
For evaluating control of vetch aphid (Megoura viciae) through contact or systemic means the test unit consisted of 24-well-microtiter plates containing broad bean leaf disks.
The compounds were formulated using a solution containing 75% v/v water and 25% v/v DMSO. Different concentrations of formulated compounds were sprayed onto the leaf disks at 2.5 μl, using a custom built micro atomizer, at two replications.
After application, the leaf disks were air-dried and 5-8 adult aphids placed on the leaf disks inside the microtiter plate wells. The aphids were then allowed to suck on the treated leaf disks and incubated at about 23±1° C. and about 50±5% relative humidity for 5 days. Aphid mortality and fecundity was then visually assessed.

[2] = tested on: Ceratitis capitata; experiment: Mediterranean fruitfly microtiter plate diet test, egg and larval mortality; settings: 120 h, 5 days, in comparison with untreated controls
Experimental: B.5 Mediterranean Fruitfly (Ceratitis capitata)
For evaluating control of Mediterranean fruitfly (Ceratitis capitata) the test unit consisted of microtiter plates containing an insect diet and 50-80 C. capitata eggs.
The compounds were formulated using a solution containing 75% v/v water and 25% v/v DMSO. Different concentrations of formulated compounds were sprayed onto the insect diet at 5 μl, using a custom built micro atomizer, at two replications.
(§1) After application, microtiter plates were incubated at about 28±1° C. and about 80±5% relative humidity for 5 days. Egg and larval mortality was then visually assessed.

[3] = tested on: Dichromothrips corbetti; experiment: Orchid thrips floral-immersion test; settings: 96 h, after 4 days, in comparison with untreated controls
Experimental: B.6 Orchid Thrips (Dichromothrips corbetti)
Dichromothrips corbetti adults used for bioassay were obtained from a colony maintained continuously under laboratory conditions. For testing purposes, the test compound was diluted to a concentration of 500 ppm (wt compound: vol diluent) in a 1:1 mixture of acetone:water (vol:vol), plus 0.01% vol/vol Kinetic® surfactant.
Thrips potency of each compound was evaluated by using a floral-immersion technique. Plastic petri dishes were used as test arenas. All petals of individual, intact orchid flowers were dipped into treatment solution and allowed to dry. Treated flowers were placed into individual petri dishes along with 10-15 adult thrips. The petri dishes were then covered with lids. All test arenas were held under continuous light and a temperature of about 28° C. for duration of the assay. After 4 days, the numbers of live thrips were counted on each flower, and along inner walls of each petri dish. The level of thrips mortality was extrapolated from pre-treatment thrips numbers.

[4] = tested on: Heliothis virescens; experiment: Tobacco budworm microtiter plate diet test, egg and larval mortality; settings: 120 h, 5 days, in comparison with untreated controls
Experimental: B.11 Tobacco Budworm (Heliothis virescens) I
For evaluating control of tobacco budworm (Heliothis virescens) the test unit consisted of 96-well-microtiter plates containing an insect diet and 15-25 H. virescens eggs. The compounds were formulated using a solution containing 75% v/v water and 25% v/v DMSO. Different concentrations of formulated compounds were sprayed onto the insect diet at 10 μl, using a custom built micro atomizer, at two replications.
as §1

[5] = tested on: Plutella xylostella; experiment: Diamond back moth leaf dip test; settings: foliar, recorded 24, 72 and 120 hours after treatment, in comparison with untreated controls
Experimental: B.3 Diamond Back Moth (Plutella xylostella)
Leaves of Chinese cabbage were dipped in test solution and air-dried. Treated leaves were placed in petri dished lined with moist filter paper. Mortality was recorded 24, 72, and 120 hours after treatment.

[6] = tested on: Anthonomus grandis; experiment: Boll weevil microtiter plate diet test, egg and larval mortality; settings: 120 h, 5 days, in comparison with untreated controls
Experimental: B.12 Boll Weevil (Anthonomus grandis)
For evaluating control of boll weevil (Anthonomusgrandis) the test unit consisted of 24-well-microtiter plates containing an insect diet and 20-30 A. grandis eggs.
The compounds were formulated using a solution containing 75% v/v water and 25% v/v DMSO. Different concentrations of formulated compounds were sprayed onto the insect diet at 20 μl, using a custom built micro atomizer, at two replications.
After application, microtiter plates were incubated at about 23±1° C. and about 50±5% relative humidity for 5 days. Egg and larval mortality was then visually assessed.

[7] = tested on: Tetranychus kanzawai; experiment: Red spider mite spray test on cowpea beans; settings: after 72 h, in comparison with untreated controls
Experimental: B.14 Red Spider Mite (Tetranychus kanzawai)
The active compound was dissolved at the desired concentration in a mixture of 1:1 (v/v) distilled water:acetone. A surfactant (Alkamuls® EL 620) was added at the rate of 0.1% (v/v).
Potted cowpea beans of 7-10 days of age were cleaned with tap water and sprayed with 5 ml of the test solution using air driven hand atomizer. The treated plants were allowed to air dry and afterwards inculated with 20 or more mites by clipping a cassava leaf section with known mite population. Treated plants were placed inside a holding room at about 25-27° C. and about 50-60% relatice humidity.
Mortality was determined by counting the live mites 72 HAT. Percent mortality was assessed after 72 h.

[8] = tested on: Myzus persicae; experiment: Green peach aphid systemic test, artificial diet in 96-well plates; settings: 72 h, 3 days, in comparison with untreated controls
From the text: B.4 Green Peach Aphid (Myzus persicae)
For evaluating control of green peach aphid (Myzus persicae) through systemic means the test unit consisted of 96-well-microtiter plates containing liquid artificial diet under an artificial membrane.
The compounds were formulated using a solution containing 75% v/v water and 25% v/v DMSO. Different concentrations of formulated compounds were pipetted into the aphid diet, using a custom built pipetter, at two replications.
After application, 5-8 adult aphids were placed on the artificial membrane inside the microtiter plate wells. The aphids were then allowed to suck on the treated aphid diet and incubated at about 23±1° C. and about 50±5% relative humidity for 3 days. Aphid mortality and fecundity was then visually assessed.

[9] = tested on: Spodoptera eridania; experiment: Southern armyworm spray test on lima bean plants; settings: 96 h, 4 days after treatment, in comparison with untreated controls
Experimental: B.9 Southern Armyworm (Spodoptera eridania)
(§2) The active compounds were formulated in cyclohexanone as a 10,000 ppm solution supplied in tubes. The tubes were inserted into an automated electrostatic sprayer equipped with an atomizing nozzle and they served as stock solutions for which lower dilutions were made in 50% acetone:50% water (v/v). A nonionic surfactant (Kinetic®) was included in the solution at a volume of 0.01% (v/v).
Lima bean plants (variety Sieva) were grown 2 plants to a pot and selected for treatment at the 1st true leaf stage. Test solutions were sprayed onto the foliage by an automated electrostatic plant sprayer equipped with an atomizing spray nozzle. The plants were dried in the sprayer fume hood and then removed from the sprayer. Each pot was placed into perforated plastic bags with a zip closure. About 10 to 11 armyworm larvae were placed into the bag and the bags zipped closed. Test plants were maintained in a growth room at about 25° C. and about 20-40% relative humidity for 4 days, avoiding direct exposure to fluorescent light (24 hour photoperiod) to prevent trapping of heat inside the bags. Mortality and reduced feeding were assessed 4 days after treatment, compared to untreated control plants.

[10] = tested on: Nephotettix virescens; experiment: Rice green leafhopper spray test on rice seedlings; settings: after 72 hours, in comparison with untreated controls
Experimental: B.7 Rice Green Leafhopper (Nephotettix virescens)
Rice seedlings were cleaned and washed 24 hours before spraying. The active compounds were formulated in 50:50 acetone:water (vol:vol), and 0.1% vol/vol surfactant (EL 620) was added. Potted rice seedlings were sprayed with 5 ml test solution, air dried, placed in cages and inoculated with 10 adults. Treated rice plants were kept at about 28-29° C. and relative humidity of about 50-60%. Percent mortality was recorded after 72 hours.

[11] = tested on: Leptinotarsa decemlineata; experiment: Colorado potato beetle spray test on eggplant foliage; settings: foliar, 96 h, 4 days after treatment, in comparison with untreated controls
Experimental: B.13 Colorado Potato Beetle (Leptinotarsa decemlineata)
as §2
Eggplants were grown 2 plants to a pot and were selected for treatment at the 1st true leaf stage. Test solutions were sprayed onto the foliage by an automated electrostatic plant sprayer equipped with an atomizing spray nozzle. The plants were dried in the sprayer fume hood and then removed from the sprayer. The treated foliage was then cut and removed from the pot and placed in a 5-inch Petri dish lined with moistened filter paper. Five beetle larvae were introduced into each Petri dish and the dish was covered by a Petri dish lid. Petri dishes were maintained in a growth room at 25° C. and 20-40% relative humidity for 4 days, avoiding direct exposure to fluorescent light (24 hour photoperiod) to prevent trapping of heat inside the dishes. Mortality and reduced feeding were assessed 4 days after treatment, compared to untreated control plants.

[12] = tested on: Aphis craccivora; experiment: Cowpea aphid spray test on potted cowpea plants; settings: assessed after 24, 72 and 120 hours, in comparison with untreated controls
Experimental: B.2 Cowpea Aphid (Aphis craccivora)
Potted cowpea plants colonized with approximately 100-150 aphids of various stages were sprayed after the pest population had been recorded. Population reduction was assessed after 24, 72, and 120 hours.

Cc1cc(C2=NSC(c3cc(Cl)cc(Cl)c3)(C(F)(F)F)C2F)ccc1C(=O)NCC(=O)NCC(F)(F)F (stereo not drawn) [Compound 5-1, 4-[5-(3,5-dichlorophenyl)-4-fluoro-5-(trifluoromethyl)-4H-isothiazol-3-yl]-2-methyl-N-[2-oxo-2-(2,2,2-trifluoroethylamino)ethyl]benzamide]
≥ 75%: mortality at 2500 ppm [1] | mortality at 2500 ppm [2] | mortality at 500 ppm [3] | mortality at 2500 ppm [4] | mortality at 500 ppm [5] | mortality at 2500 ppm [6] | mortality at 500 ppm [7] | mortality at 2500 ppm [8]

CCSCC(=O)N(CC)Cc1ccc(C2=NSC(c3cc(Cl)cc(Cl)c3)(C(F)(F)F)C2)cc1C (stereo not drawn) [Compound 3-3, N-[[4-[5-(3,5-Dichlorophenyl)-5-(trifluoromethyl)-4H-isothiazol-3-yl]-2-methyl-phenyl]methyl]-N-ethyl-2-ethylsulfanyl-acetamide]
≥ 75%: mortality at 2500 ppm [2] | mortality at 500 ppm [3] | mortality at 1 ppm [9] | mortality at 2500 ppm [4] | mortality at 500 ppm [5] | mortality at 2500 ppm [6] | mortality at 500 ppm [10] | mortality at 2500 ppm [8]

CCNC(=O)N/N=C/c1ccc(C2=NSC(c3cc(Cl)cc(Cl)c3)(C(F)(F)F)C2)cc1C (stereo not drawn) [Compound 1-5, 1-[(E)-[4-[5-(3,5-dichlorophenyl)-5-(trifluoromethyl)-4H-isothiazol-3-yl]-2-methyl-phenyl]methyleneamino]-3-ethyl-urea]
≥ 75%: mortality at 2500 ppm [1] | mortality at 2500 ppm [2] | mortality at 500 ppm [3] | mortality at 1 ppm [9] | mortality at 2500 ppm [4] | mortality at 500 ppm [5] | mortality at 2500 ppm [6] | mortality at 2500 ppm [8]

Cc1cc(C2=NSC(c3cc(Cl)cc(Cl)c3)(C(F)(F)F)C2)ccc1C(=O)NCC(=O)NCC(F)(F)F (stereo not drawn) [Compound 2-1, 4-[5-(3,5-Dichlorophenyl)-5-trifluoromethyl-4H-isothiazol-3-yl]-2-methyl-N-[2-oxo-2-(2,2,2-trifluoroethylamino)ethyl]benzamide]
≥ 75%: mortality at 2500 ppm [1] | mortality at 2500 ppm [2] | mortality at 500 ppm [3] | mortality at 1 ppm [9] | mortality at 2500 ppm [4] | mortality at 500 ppm [5] | mortality at 2500 ppm [6] | mortality at 500 ppm [7] | mortality at 500 ppm [10] | mortality at 2500 ppm [8] | mortality at 1 ppm [11] | mortality at 500 ppm [12]
